Entries after “also recorded” stand apart in the source; their conditions may differ.

One assay has as its system STAT3 phosphorylation. The experiment in a line: STAT3 phosphorylation in LPS-stimulated macrophages (flow cytometry). The class given is cell-based, human. The following applies: compound 1 h, then LPS 3 h; control MFI 49. The protocol:
(§1) To gain an insight into the signaling induced by the tested compounds, ERK1/2 and STAT3 phosphorylation was checked. Macrophages were treated with tested compounds for 1 h, after which they were stimulated with LPS for 3 h.
(§2) Peripheral blood mononuclear cells (PBMCs) were separated by Ficoll-Paque PLUS density gradient centrifugation. PBMCs were placed in a sterile Petri dish and incubated at 37 °C for 2 h. Unattached cells were then removed by washing with PBS and substituted with fresh complete RPMI 1640 medium. To generate monocyte-derived macrophages (MDMs), 50 ng/mL GM-CSF was added to the isolated monocytes and cultured for 6 days to differentiate them into non-polarized MDMs.
Figure 5 Effects of the analyzed compounds on signaling pathways in LPS-stimulated macrophages. Cells were treated with PNU 282987, hypaphorine, or 6-iodohypaphorine methyl ester (6ID) for 1 h and then stimulated with LPS for 3 h. Phosphorylated ERK1/2 and STAT3 were quantified by flow cytometry with specific antibodies. […] (c): Representative histogram showing the increase in ERK 1/2 phosphorylation in comparison to control. The numbers in the histograms show the MFI ± SD (n = 3). MFI—geometrical mean fluorescence intensity. One-way ANOVA tests with Tukey post hoc test: * p ˂ 0.05, ** p ˂ 0.01, *** p < 0.001 in comparison with untreated cells. TEXT PRINTED IN THE PICTURE: (c) Control: PE-ERK 1/2 Phospho: 193.7±1.5 | (c) PNU 282987: PE-ERK 1/2 Phospho: 251.3±13.7 | (c) Hy: PE-ERK 1/2 Phospho: 246.0±15.7 | (c) 6ID: PE-ERK 1/2 Phospho: 273.7±8.1 DOUBTS OF THE COPYIST ABOUT THIS PICTURE: Panel c: no measure or unit is printed beside the numbers; the x-axis label "PE-ERK 1/2 Phospho" is used as the measure / "Control" is the untreated reference rather than a substance; it is included because a value is printed with it

Assay [1] addresses T1, human α3-containing nAChRs (Homo sapiens, UniProt P32297).
T1 construct: endogenous in cells; host or cells: human neuroblastoma SH-SY5Y
The experiment in a line: Calcium imaging of α3-containing nAChRs in SH-SY5Y cells (nicotine-induced calcium rise). Type of assay: cell-based. The procedure: Two of the studied compounds with high and medium agonist potency for α7 nAChR (6CF and 6ID, Table 1) were tested for activity toward α3* nAChR by calcium imaging.
Normalized data are presented as mean ± standard error. n = 6–7.

A further assay deals with T2, α9α10 nAChR (Homo sapiens, UniProt Q9GZZ6+Q9UGM1).
T2 construct: expressed in transfected cells; host or cells: Xenopus oocytes injected with in vitro transcribed RNA
The experiment in a line: Two-electrode voltage-clamp on α9/α10 nAChR in Xenopus oocytes. Type of assay: cell-based. The protocol:
Recordings were performed using Axopatch 200 amplifier in two-electrode voltage-clamp setup (Molecular Devices, LLC, San Jose, CA, USA) on oocytes removed from mature Xenopus frogs. Two to three days before taking recordings, oocytes were injected with in vitro transcribed RNA, coding α9 and α10 nAChR and kept at 18 °C in ND96 electrophysiology buffer solution (5 mM HEPES/NaOH at pH 7.6 and 18 °C, 96 mM NaCl, 2 mM KCl, 1.8 mM CaCl2, 2 mM MgCl2).

In a further assay the test system is ERK 1/2 phosphorylation. The experiment in a line: ERK1/2 phosphorylation in LPS-stimulated macrophages (flow cytometry). The class given is cell-based, human. The following applies: compound 1 h, then LPS 3 h; control MFI 194; listed as 6ID. The procedure:
as §1, §2
Figure 5 Effects of the analyzed compounds on signaling pathways in LPS-stimulated macrophages. Cells were treated with PNU 282987, hypaphorine, or 6-iodohypaphorine methyl ester (6ID) for 1 h and then stimulated with LPS for 3 h. Phosphorylated ERK1/2 and STAT3 were quantified by flow cytometry with specific antibodies. […] (c): Representative histogram showing the increase in ERK 1/2 phosphorylation in comparison to control. The numbers in the histograms show the MFI ± SD (n = 3). MFI—geometrical mean fluorescence intensity. One-way ANOVA tests with Tukey post hoc test: * p ˂ 0.05, ** p ˂ 0.01, *** p < 0.001 in comparison with untreated cells. […]

A further assay relates to MIA-induced arthritis. The experiment in a line: Monoiodoacetate-induced arthritis model, histological study of the knee joint. Type of assay: in vivo, female rats. The note with it: 15th day, scale 0-5, n = 4. From the text: After the experiment termination and euthanasia of the experimental animals, biomaterials were taken for histological examination. Soft tissues around the right knee joint were excised as much as possible. Femur, tibia, and fibula were cut across in the middle of the diaphysis closer to the corresponding articular surfaces. The joint was fixed in a 10% solution of neutral formalin for seven days, washed in running water and then decalcified in Trilon B for 7–14 days. After satisfactory decalcification of the bone and cartilage tissue, the joint was cut in the sagittal plane. The diaphysis of the tubular bones was shortened to the border of 2–3 mm from the metaepiphyseal cartilage. In this form, the biomaterial was repeatedly washed in running water, dehydrated in alcohols of ascending concentration, and embedded in paraffin. Paraffin sections 5–7 μm thick were stained with hematoxylin and eosin and examined using conventional light microscopy. During histological analysis, the following morphological signs were assessed: inflammatory infiltration of the synovial membrane (synovitis), synovial hyperplasia, destructive changes in the articular cartilage, and destructive changes in bone tissue (if any). The following scale was used to assess the severity of a particular morphological trait: 0 points—within normal limits, 1—minimal severity, 2—weak, 3—medium (moderate), 4—strong, 5—very strong.
Four groups of animals were formed: control and three groups with modelling of inflammation by introducing monoiodoacetate (MIA). Three groups of animals were injected with 3 mg MIA in 50 μL of 0.9% sodium chloride through the patellar ligament into the intra-articular space of the right knee using a 29-G needle. Control rats received an equivalent volume of 0.9% sodium chloride.

T1 sequence (P32297 32-505): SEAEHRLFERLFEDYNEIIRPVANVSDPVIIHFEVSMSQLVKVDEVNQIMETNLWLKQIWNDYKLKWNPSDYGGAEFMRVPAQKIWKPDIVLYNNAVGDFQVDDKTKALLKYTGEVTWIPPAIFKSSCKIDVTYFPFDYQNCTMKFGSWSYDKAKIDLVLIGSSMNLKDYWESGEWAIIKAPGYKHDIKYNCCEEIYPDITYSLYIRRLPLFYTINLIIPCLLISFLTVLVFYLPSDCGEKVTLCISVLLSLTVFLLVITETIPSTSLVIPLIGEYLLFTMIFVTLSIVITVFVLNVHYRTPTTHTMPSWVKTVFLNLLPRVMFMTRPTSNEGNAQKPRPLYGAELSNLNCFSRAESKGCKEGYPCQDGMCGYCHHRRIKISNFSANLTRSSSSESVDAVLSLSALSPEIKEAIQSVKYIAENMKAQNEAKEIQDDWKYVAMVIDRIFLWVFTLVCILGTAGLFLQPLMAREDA
T2 sequence (Q9UGM1 26-479 limits assumed): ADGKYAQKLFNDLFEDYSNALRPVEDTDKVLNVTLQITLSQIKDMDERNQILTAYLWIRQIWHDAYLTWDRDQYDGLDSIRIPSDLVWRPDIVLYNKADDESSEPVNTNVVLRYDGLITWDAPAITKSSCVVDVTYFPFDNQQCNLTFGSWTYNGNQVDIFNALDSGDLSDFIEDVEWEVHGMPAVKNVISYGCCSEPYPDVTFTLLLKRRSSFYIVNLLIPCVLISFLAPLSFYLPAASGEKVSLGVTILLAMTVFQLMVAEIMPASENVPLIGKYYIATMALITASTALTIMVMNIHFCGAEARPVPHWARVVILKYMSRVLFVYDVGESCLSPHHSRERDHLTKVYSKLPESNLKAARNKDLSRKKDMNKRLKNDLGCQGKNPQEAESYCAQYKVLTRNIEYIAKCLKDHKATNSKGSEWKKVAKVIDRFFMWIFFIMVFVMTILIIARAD
T2 sequence (Q9GZZ6 25-450): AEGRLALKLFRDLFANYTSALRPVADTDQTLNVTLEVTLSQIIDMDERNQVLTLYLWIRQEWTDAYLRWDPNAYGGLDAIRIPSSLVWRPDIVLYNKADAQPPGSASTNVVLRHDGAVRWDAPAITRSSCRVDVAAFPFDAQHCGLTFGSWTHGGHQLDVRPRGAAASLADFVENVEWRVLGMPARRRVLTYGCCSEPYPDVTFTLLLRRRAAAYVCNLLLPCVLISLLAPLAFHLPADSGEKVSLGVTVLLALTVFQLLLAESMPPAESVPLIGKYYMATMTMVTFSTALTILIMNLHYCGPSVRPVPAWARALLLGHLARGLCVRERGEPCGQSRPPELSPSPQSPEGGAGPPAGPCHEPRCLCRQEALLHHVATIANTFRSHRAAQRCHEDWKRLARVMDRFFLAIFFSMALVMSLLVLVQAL

Regarding `C[N+](C)(C)[C@H](Cc1c[nH]c2ccccc12)C(=O)[O-]` [Compound 16, L-hypaphorine, reference compound], the “STAT3 phosphorylation, MFI” value in the assay on STAT3 phosphorylation is “increase in the phosphorylation”.

For orientation: IC50 means the midpoint of a concentration-inhibition curve. For `COC(=O)[C@@H](Cc1c[nH]c2cc(I)ccc12)[N+](C)(C)C` [Compound 1, (D)-6-iodohypaphorine methyl ester], the “agonism on α3* nAChR (calcium response)” value in assay [1] (compound alone, listed as 6ID) is “does not evoke noticeable calcium response in range of 3–30 μM; also recorded: Neither 6ID, which was most active agonist of α7 nAChR, nor 6CF showed detectable agonism on α3* nAChR at concentrations up to 30 µM”. For the same compound, the IC50 in assay [1] (inhibition of nicotine (100 μM)-induced calcium rise) was determined as 4.4 ± 1 µM. The “activity toward α9α10 nAChR” value on α9α10 nAChR was “almost inactive”. Moreover, the “ERK 1/2 phosphorylation, MFI” value in the assay with ERK 1/2 phosphorylation stood at 274. For the same compound, in the assay with STAT3 phosphorylation, the “STAT3 phosphorylation, MFI” value amounted to 58.

Turning to `COC(=O)C(Cc1c[nH]c2cc([N+](=O)[O-])ccc12)[N+](C)(C)C` (stereo not drawn) [Compound 5, methyl ester of 6-nitrohypaphorine], in the assay with MIA-induced arthritis (0.05 mg/kg intramuscular), the “Destructive Changes in the Distal Epiphyseal Cartilage of the Femur, Max score” value is reported as 3.0; the “Destructive Changes in the Distal Epiphyseal Cartilage of the Femur, Me (average) score” value turned out to be 3.0; the “Destructive Changes in the Distal Epiphyseal Cartilage of the Femur, Min score” value was determined as 3.0; the “Destructive Changes in the Proximal Epiphyseal Cartilage of the Tibia, Max score” value is given as 4.0. Besides, in the assay on MIA-induced arthritis (0.05 mg/kg intramuscular), the “Destructive Changes in the Proximal Epiphyseal Cartilage of the Tibia, Me (average) score” value was determined as 3.5; the “Destructive Changes in the Proximal Epiphyseal Cartilage of the Tibia, Min score” value is given as 3.0; the “Inflammatory Infiltration of the Synovium, Max score” value was determined as 4.0; the “Inflammatory Infiltration of the Synovium, Me (average) score” value is reported as 3.75. For the same compound, in the assay with MIA-induced arthritis (0.05 mg/kg intramuscular), the “Inflammatory Infiltration of the Synovium, Min score” value is 3.0; the “Synovial Hyperplasia, Max score” value stood at 3.0; the “Synovial Hyperplasia, Min score” value stood at 2.0. In the assay with MIA-induced arthritis (0.05 mg/kg intramuscular, listed as 6ND), the “Synovial Hyperplasia, Me (average) score” value is reported as 2.25. Further, in the assay with MIA-induced arthritis (0.26 mg/kg intramuscular), the “Destructive Changes in the Distal Epiphyseal Cartilage of the Femur, Max score” value came out at 3.0; the “Destructive Changes in the Distal Epiphyseal Cartilage of the Femur, Me (average) score” value was 3.0; the “Destructive Changes in the Distal Epiphyseal Cartilage of the Femur, Min score” value is reported as 3.0; the “Destructive Changes in the Proximal Epiphyseal Cartilage of the Tibia, Max score” value was found to be 4.0. Moreover, in the assay with MIA-induced arthritis (0.26 mg/kg intramuscular), the “Destructive Changes in the Proximal Epiphyseal Cartilage of the Tibia, Me (average) score” value turned out to be 3.5; the “Destructive Changes in the Proximal Epiphyseal Cartilage of the Tibia, Min score” value is given as 3.0; the “Inflammatory Infiltration of the Synovium, Max score” value came to 3.0; the “Inflammatory Infiltration of the Synovium, Me (average) score” value came out at 2.5. In the assay on MIA-induced arthritis (0.26 mg/kg intramuscular), the “Inflammatory Infiltration of the Synovium, Min score” value came out at 2.0; the “Synovial Hyperplasia, Max score” value amounted to 2.0; the “Synovial Hyperplasia, Me (average) score” value was determined as 1.5; the “Synovial Hyperplasia, Min score” value amounted to 1.0.

The values above are taken from paper PMC10305119, “Analogs of 6-Bromohypaphorine with Increased Agonist Potency for α7 Nicotinic Receptor as Anti-Inflammatory Analgesic Agents” (Marine Drugs, 2023).
